Assay results reported in the supplement of paper PMC10307832.

compound: CC(C)C[C@H](NC(=O)[C@H](CCc1ccccc1)NC(=O)CN1CCOCC1)C(=O)N[C@@H](Cc1ccccc1)C(=O)N[C@@H](CC(C)C)C(=O)[C@@]1(C)CO1 [Carfilzomib] + Cc1nc(NC(=O)N2CCC[C@H]2C(N)=O)sc1-c1ccnc(C(C)(C)C(F)(F)F)c1 [Alpelisib] (partner 2 µM); assay: relative viability (nuclei count vs DMSO), 5 days (fraction); higher = more cells survive; settings: first compound 0.001 µM
Procedure, shortened: (§1)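 Relative viability divides the nuclei count in treated wells by that in vehicle wells. Lung cancer cell lines were seeded in 1536-well plates, dosed by pin tool the next day, and fixed and stained after 5 days in one step with final 0.05% Triton X-100, 1% formaldehyde and 1 ug/ml Hoechst. Dosing was a single drug or a fixed anchor-drug dose plus five library-drug doses (not always all listed) in √10 steps, and values are medians of duplicate plates imaged at 4×.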

Row | Cell Line | relative viability
1 | LC-2-ad | 0.915
2 | LCLC-97TM1 | 0.307
3 | LCLC-103H | 0.972
4 | LOU-NH91 | 0.702
5 | LU99A | 0.503
6 | LXF-289 | 1.06
7 | NCI-H23 | 0.741
8 | NCI-H322M | 0.796
9 | NCI-H441 | 0.946
10 | NCI-H460 | 0.556
11 | NCI-H520 | 1.11
12 | NCI-H596 | 0.467
13 | NCI-H647 | 1.14
14 | NCI-H650 | 1.09
15 | NCI-H661 | 0.778

same assay, conditions: first compound 0.003162 µM

Row | Cell Line | relative viability
16 | LC-2-ad | 0.923
17 | LCLC-97TM1 | 0.258
18 | LCLC-103H | 1.01
19 | LOU-NH91 | 0.742
20 | LU99A | 0.543
21 | LXF-289 | 1.07
22 | NCI-H23 | 0.84
23 | NCI-H322M | 0.757
24 | NCI-H441 | 0.842
25 | NCI-H460 | 0.462
26 | NCI-H520 | 0.951
27 | NCI-H596 | 0.566
28 | NCI-H647 | 1.19
29 | NCI-H650 | 1.3
30 | NCI-H661 | 0.93

same assay, conditions: first compound 0.01 µM

Row | Cell Line | relative viability
31 | LC-2-ad | 0.956
32 | LCLC-97TM1 | 0.266
33 | LCLC-103H | 0.99
34 | LOU-NH91 | 0.662
35 | LU99A | 0.49
36 | LXF-289 | 0.979
37 | NCI-H23 | 0.857
38 | NCI-H322M | 0.365
39 | NCI-H441 | 0.2
40 | NCI-H460 | 0.538
41 | NCI-H520 | 0.574
42 | NCI-H596 | 0.464
43 | NCI-H647 | 0.71
44 | NCI-H650 | 1.21
45 | NCI-H661 | 0.495

same assay, conditions: first compound 0.03162 µM

Row | Cell Line | relative viability
46 | LC-2-ad | 0.106
47 | LCLC-97TM1 | 0.101
48 | LCLC-103H | 0.671
49 | LOU-NH91 | 0.307
50 | LU99A | 0.198
51 | LXF-289 | 0.0883
52 | NCI-H23 | 0.207
53 | NCI-H322M | 0.748
54 | NCI-H441 | 0.102
55 | NCI-H460 | 0.101
56 | NCI-H520 | 0.138
57 | NCI-H596 | 0.276
58 | NCI-H647 | 0.025
59 | NCI-H650 | 1.09
60 | NCI-H661 | 0.615

same assay, conditions: first compound 0.1 µM

Row | Cell Line | relative viability
61 | LC-2-ad | 0.109
62 | LCLC-97TM1 | 0.126
63 | LCLC-103H | 0.195
64 | LOU-NH91 | 0.267
65 | LU99A | 0.148
66 | LXF-289 | 0.0581
67 | NCI-H23 | 0.112
68 | NCI-H322M | 0.509
69 | NCI-H441 | 0.15
70 | NCI-H460 | 0.0126
71 | NCI-H520 | 0.137
72 | NCI-H596 | 0.194
73 | NCI-H647 | 0.0242
74 | NCI-H650 | 0.164
75 | NCI-H661 | 0.181

compound: C[C@@H](Oc1cc(-c2cnn(C3CCNCC3)c2)cnc1N)c1c(Cl)ccc(F)c1Cl [Crizotinib] + CC(C)C[C@H](NC(=O)[C@H](Cc1ccccc1)NC(=O)c1cnccn1)B(O)O [Bortezomib] (partner 0.002 µM); assay: as above; settings: first compound 0.01 µM
Procedure, shortened: as §1

Row | Cell Line | relative viability
76 | LC-2-ad | 1.06
77 | LCLC-97TM1 | 0.641
78 | LCLC-103H | 1.06
79 | LOU-NH91 | 0.457
80 | LU99A | 1.1
81 | LXF-289 | 0.917
82 | NCI-H23 | 1.02
83 | NCI-H322M | 1.19
84 | NCI-H441 | 0.689
85 | NCI-H460 | 1.08
86 | NCI-H520 | 0.492
87 | NCI-H596 | 0.894
88 | NCI-H647 | 0.638
89 | NCI-H650 | 0.769
90 | NCI-H661 | 0.759

same assay, conditions: first compound 0.03162 µM

Row | Cell Line | relative viability
91 | LC-2-ad | 1.07
92 | LCLC-97TM1 | 0.601
93 | LCLC-103H | 1.04
94 | LOU-NH91 | 0.465
95 | LU99A | 1.14
96 | LXF-289 | 0.972
97 | NCI-H23 | 1.09
98 | NCI-H322M | 1.23
99 | NCI-H441 | 0.419
100 | NCI-H460 | 1.07
101 | NCI-H520 | 0.5
102 | NCI-H596 | 1.18
103 | NCI-H647 | 1.01
104 | NCI-H650 | 0.655
105 | NCI-H661 | 0.768

same assay, conditions: first compound 0.1 µM

Row | Cell Line | relative viability
106 | LC-2-ad | 1
107 | LCLC-97TM1 | 1.09
108 | LCLC-103H | 1.11
109 | LOU-NH91 | 0.451
110 | LU99A | 1.14
111 | LXF-289 | 1.01
112 | NCI-H23 | 1.03
113 | NCI-H322M | 1.24
114 | NCI-H441 | 0.764
115 | NCI-H460 | 1.01
116 | NCI-H520 | 0.586
117 | NCI-H596 | 1.1
118 | NCI-H647 | 0.827
119 | NCI-H650 | 0.806
120 | NCI-H661 | 0.72

same assay, conditions: first compound 0.3162 µM

Row | Cell Line | relative viability
121 | LCLC-97TM1 | 0.435
122 | LCLC-103H | 1.09
123 | LOU-NH91 | 0.484
124 | LU99A | 1.07
125 | LXF-289 | 0.85
126 | NCI-H322M | 1.29
127 | NCI-H460 | 1.2
128 | NCI-H520 | 0.522
129 | NCI-H596 | 1.45
130 | NCI-H647 | 0.94
131 | NCI-H650 | 0.613
132 | NCI-H661 | 0.777

same assay, conditions: first compound 1 µM

Row | Cell Line | relative viability
133 | LC-2-ad | 1.04
134 | LCLC-97TM1 | 0.519
135 | LCLC-103H | 1.16
136 | LOU-NH91 | 0.458
137 | LU99A | 1.04
138 | LXF-289 | 0.967
139 | NCI-H23 | 0.979
140 | NCI-H322M | 1.38
141 | NCI-H441 | 0.355
